In patent publication US8420630B2 (Boehringer Ingelheim Pharma GmbH & Co. KG, priority 2001, dated 2013):
Where a name gives a salt, the structure may show the parent alone.

Biological target: T1, CDK1/cyclinB1 (Homo sapiens, UniProt P06493)
T1 construct: made in house; host or cells: High Five insect cells (Trichoplusia ni), baculovirus coinfection
Test: Cyclin B1-CDK1 kinase inhibition test
Type: biochemical
Conditions: CDK1 tests (Example 13); recombinant cyclin B1/CDK1, substrate histone H1; read-out: CDK1/cyclinB1 IC50 value
In short: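 Baculovirus-expressed CDK1/cyclin B1 phosphorylated histone H1 with ATP mix containing 0.045 mM ATP plus ^33P-ATP for 30 min at 30 °C. Protein was precipitated with TCA and filter-bound radioactivity read by scintillation counting. Olomoucin at 30 and 300 μM final served as internal control.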

T1 sequence (P06493 whole entry): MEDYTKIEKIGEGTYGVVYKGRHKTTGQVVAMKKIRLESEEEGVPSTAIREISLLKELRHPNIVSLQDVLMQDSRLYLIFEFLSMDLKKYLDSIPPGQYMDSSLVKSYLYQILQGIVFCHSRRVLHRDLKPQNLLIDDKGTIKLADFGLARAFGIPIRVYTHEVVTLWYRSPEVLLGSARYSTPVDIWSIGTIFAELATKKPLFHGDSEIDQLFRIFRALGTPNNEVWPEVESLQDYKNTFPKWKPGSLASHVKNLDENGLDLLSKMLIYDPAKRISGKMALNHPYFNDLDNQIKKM
T1 sequence (P14635 whole entry partner): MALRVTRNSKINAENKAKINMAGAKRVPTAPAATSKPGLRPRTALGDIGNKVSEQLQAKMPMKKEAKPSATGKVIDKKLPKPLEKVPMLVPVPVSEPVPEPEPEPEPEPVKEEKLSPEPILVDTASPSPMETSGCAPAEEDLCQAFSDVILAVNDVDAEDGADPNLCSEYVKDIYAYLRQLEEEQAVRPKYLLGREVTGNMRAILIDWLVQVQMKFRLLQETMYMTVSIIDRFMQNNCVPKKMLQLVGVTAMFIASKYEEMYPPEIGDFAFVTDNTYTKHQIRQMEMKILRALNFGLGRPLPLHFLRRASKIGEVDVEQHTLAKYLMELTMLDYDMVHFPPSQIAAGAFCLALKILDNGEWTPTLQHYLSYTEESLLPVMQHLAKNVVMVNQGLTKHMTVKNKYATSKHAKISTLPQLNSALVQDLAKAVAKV

SMILES	IC50 [nM]
CC(=O)N(C)CCN(C)c1nc(Nc2ccc(S(=O)(=O)N(C)C)cc2)ncc1C(F)(F)F [Example 1(690), N-(2-{[2-(4-dimethylsulphamoyl-phenylamino)-5-trifluoromethyl-pyrimidin-4-yl]-methyl-amino}-ethyl)-N-methyl-acetamide]	< 100
CC(=O)NCCNc1nc(Nc2ccc(S(=O)(=O)C(C)C)cc2)ncc1C(F)(F)F [Example 1(692), N-(2-{2-[4-(propane-2-sulphonyl)-phenylamino]-5-trifluoromethyl-pyrimidin-4-ylamino}-ethyl)-acetamide]	< 100
NCCCNc1nc(Nc2ccc(C(N)=O)cc2)ncc1C(F)(F)F [Example 1(693), 4-[4-(3-aminopropylamino)-5-trifluoromethyl-pyrimidin-2-ylamino]benzamide]	< 100
CN(C)S(=O)(=O)c1ccc(Nc2ncc(C(F)(F)F)c(N3CCc4nc[nH]c4C3)n2)cc1 [Example 1(694), N,N-dimethyl-4-[4-(3,4,6,7-tetrahydro-imidazo[4,5-c]pyridin-5-yl)-5-trifluoromethyl-pyrimidin-2-ylamino]-phenylsulphonamide]	< 100
O=S(=O)(c1ccc(Nc2ncc(C(F)(F)F)c(N3CCc4nc[nH]c4C3)n2)cc1)N1CCOCC1 [Example 1(695), [4-(Morpholin-4-sulphonyl)-phenyl]-[4-(3,4,6,7-tetrahydro-imidazo[4,5-5]pyridin-5-yl)-5-trifluoromethyl-pyrimidin-2-yl]-amine]	< 100
CC(=O)NCCNc1nc(Nc2ccc(Cl)c(Cl)c2)ncc1Br [Example 2(002), 2-(3,4-dichlorophenylamino)-4-(2-acetylamino-ethylamino)-5-bromo-pyrimidine-hydrochloride]	< 100
CC(=O)NCCNc1nc(Nc2ccc(Cl)c(Cl)c2)ncc1C(F)(F)F [Example 2(003), 2-(3,4-dichlorophenylamino)-4-(2-acetylamino-ethylamino)-5-trifluoromethyl-pyrimidine-hydrochloride]	< 100
CC(=O)NCCNc1nc(Nc2ccc(N)cc2)ncc1C(F)(F)F [Example 2(004), N-{2-[2-(4-amino-phenylamino)-5-trifluoromethyl-pyrimidin-4-ylamino]-ethyl}-acetamide]	< 100
CC(=O)NCCNc1nc(Nc2ccc(Br)cc2)ncc1C(F)(F)F [Example 2(007), 2-(4-bromophenylamino)-4-(2-acetylamino-ethylamino)-5-trifluoromethyl-pyrimidine]	< 100
CC(=O)NCCNc1nc(Nc2ccc(S(N)(=O)=O)cc2)ncc1C(F)(F)F [Example 2(008), 2-(4-aminosulphonyl-phenylamino)-4-(2-acetylamino-ethylamino)-5-trifluoromethyl-pyrimidine]	< 100
CC(=O)NCCNc1nc(Nc2cccc(Cl)c2)ncc1C(F)(F)F [Example 2(009), 2-(3-chloro-phenylamino)-4-(2-acetylamino-ethylamino)-5-trifluoromethyl-pyrimidine]	< 100
CC(=O)NCCNc1nc(Nc2cccc([N+](=O)[O-])c2)ncc1C(F)(F)F [Example 2(010), 2-(3-Nitro-phenylamino)-4-(2-acetylamino-ethylamino)-5-trifluoromethyl-pyrimidine]	< 100
CC(=O)NCCNc1nc(Nc2ccc(N(C)S(C)(=O)=O)cc2)ncc1C(F)(F)F [Example 2(011), 2-(4-(N-Methyl-N-methylsulphonyl)amino-phenylamino)-4-(2-acetylamino-ethylamino)-5-trifluoromethyl-pyrimidine]	< 100
CC(=O)NCCNc1nc(Nc2cccc(Br)c2)ncc1C(F)(F)F [Example 2(012), 2-(3-bromo-phenylamino)-4-(2-acetylamino-ethylamino)-5-trifluoromethyl-pyrimidine]	< 100
CC(=O)NCCNc1nc(Nc2ccc(Cl)c(C(F)(F)F)c2)ncc1C(F)(F)F [Example 2(013), 2-(4-chloro-3-trifluoromethyl-phenylamino)-4-(2-acetylamino-ethylamino)-5-trifluoromethyl-pyrimidine]	< 100
CC(=O)NCCNc1nc(Nc2ccc(Br)c(Cl)c2)ncc1C(F)(F)F [Example 2(014), 2-(4-bromo-3-chloro-phenylamino)-4-(2-acetylamino-ethylamino)-5-trifluoromethyl-pyrimidine]	< 100
CC(=O)NCCNc1nc(Nc2cc(Cl)cc(Cl)c2)ncc1C(F)(F)F [Example 2(015), 2-(3,5-Dichloro-phenylamino)-4-(2-acetylamino-ethylamino)-5-trifluoromethyl-pyrimidine]	< 100
CC(=O)NCCNc1nc(Nc2ccc(Cl)cc2)ncc1C(F)(F)F [Example 2(016), 2-(4-chloro-phenylamino)-4-(2-acetylamino-ethylamino)-5-trifluoromethyl-pyrimidine]	< 100

SMILES	IC50 [nM]
O=C1CCCN1CCCNc1nc(Nc2ccc3[nH]nnc3c2)ncc1C(F)(F)F [Example 2(036), 1-{3-[2-(1H-Benzotriazol-5-ylamino)-5-trifluoromethyl-pyrimidin-4-ylamino]-propyl}-pyrrolidin-2-one]	< 100
O=C1CCCN1CCCNc1nc(Nc2ccc3[nH]cnc3c2)ncc1C(F)(F)F [Example 2(037), 1-{3-[2-(1H-Benzimidazol-5-ylamino)-5-trifluoromethyl-pyrimidin-4-ylamino]-propyl}-pyrrolidin-2-one]	< 100
O=C1CCCN1CCCNc1nc(Nc2ccc3cn[nH]c3c2)ncc1C(F)(F)F [Example 2(038), 1-{3-[2-(1H-Indazol-6-ylamino)-5-trifluoromethyl-pyrimidin-4-ylamino]-propyl}-pyrrolidin-2-one]	< 100
CN(C)S(=O)(=O)c1ccc(Nc2ncc(C(F)(F)F)c(NCCCN3CCCC3=O)n2)cc1 [Example 2(041), N,N-Dimethyl-4-{4-[3-(2-oxo-pyrrolidin-1-yl)-propylamino]-5-trifluoromethyl-pyrimidin-2-ylamino}-phenylsulphonamide]	< 100
CC(=O)NCCNc1nc(Nc2ccc3[nH]nnc3c2)ncc1C(F)(F)F [Example 2(042), N-{2-[2-(1H-Benzotriazol-5-ylamino)-5-trifluoromethyl-pyrimidin-4-ylamino]-ethyl}-acetamide]	< 100
CC(=O)NCCNc1nc(Nc2ccc3[nH]cnc3c2)ncc1C(F)(F)F [Example 2(043), N-{2-[2-(1H-Benzimidazol-5-ylamino)-5-trifluoromethyl-pyrimidin-4-ylamino]-ethyl}-acetamide]	< 100
CC(=O)NCCNc1nc(Nc2ccc3cn[nH]c3c2)ncc1C(F)(F)F [Example 2(044), N-{2-[2-(1H-Indazol-6-ylamino)-5-trifluoromethyl-pyrimidin-4-ylamino]-ethyl}-acetamide]	< 100
CC(=O)NCCNc1nc(Nc2ccc3[nH]ncc3c2)ncc1C(F)(F)F [Example 2(045), N-{2-[2-(1H-Indazol-5-ylamino)-5-trifluoromethyl-pyrimidin-4-ylamino]-ethyl}-acetamide]	< 100
CC(=O)NCCNc1nc(Nc2ccc(-c3nn[nH]n3)cc2)ncc1C(F)(F)F [Example 2(046), N-(2-{2-[4-(2H-Tetrazol-5-yl)-phenylamino]-5-trifluoromethyl-pyrimidin-4-ylamino}-ethyl)-acetamide]	< 100
CC(=O)NCCNc1nc(Nc2ccc(S(=O)(=O)N(C)C)cc2)ncc1C(F)(F)F [Example 2(047), N-{2-[2-(4-Dimethylsulphamoyl-phenylamino)-5-trifluoromethyl-pyrimidin-4-ylamino]-ethyl}-acetamide]	< 100
O=C1CCCN1CCCNc1nc(Nc2ccc3cn[nH]c3c2)ncc1Cl [Example 2(048), 1-{3-[5-chloro-2-(1H-indazol-6-ylamino)-pyrimidin-4-ylamino]-propyl}-pyrrolidin-2-on]	< 100
O=C1NCCN1CCNc1nc(Nc2ccc(S(=O)(=O)N3CCOCC3)cc2)ncc1C(F)(F)F [Example 2(051), 1-(2-{2-[4-(Morpholin-4-sulphonyl)-phenylamino]-5-trifluoromethyl-pyrimidin-4-ylamino}-ethyl)-imidazolidin-2-one]	< 100
O=C1CCCN1CCCNc1nc(Nc2ccc(CO)cc2)ncc1C(F)(F)F [Example 2(052), 1-{3-[2-(4-Hydroxymethyl-phenylamino)-5-trifluoromethyl-pyrimidin-4-ylamino]-propyl}-pyrrolidin-2-one]	< 100
CC(=O)NCCNc1nc(Nc2ccc(CC(=O)N(C)C)cc2)ncc1C(F)(F)F [Example 2(053), 2-{4-[4-(2-Acetylamino-ethylamino)-5-trifluoromethyl-pyrimidin-2-ylamino]-phenyl}-N,N-dimethyl-acetamide]	< 100
CC(=O)NCCNc1nc(Nc2ccc(S(=O)(=O)N3CCOCC3)cc2)ncc1C(F)(F)F [Example 2(057), N-(2-{2-[4-(Morpholin-4-sulphonyl)-phenylamino]-5-trifluoromethyl-pyrimidin-4-ylamino}-ethyl)-acetamide]	< 100
CC(=O)NCCNc1nc(Nc2ccc(S(=O)(=O)N3CCN(C)CC3)cc2)ncc1C(F)(F)F [Example 2(058), N-(2-{2-[4-(4-Methyl-piperazin-1-sulphonyl)-phenylamino]-5-trifluoromethyl-pyrimidin-4-ylamino}-ethyl)-acetamide]	< 100
CC(=O)NCCNc1nc(Nc2ccc(S(=O)(=O)Nc3ccccn3)cc2)ncc1C(F)(F)F [Example 2(059), N-(2-{2-[4-(Pyridin-2-ylsulphamoyl)-phenylamino]-5-trifluoromethyl-pyrimidin-4-ylamino}-ethyl)-acetamide]	< 100
CC(=O)NCCNc1nc(Nc2ccc(S(=O)(=O)N3CCCNCC3)cc2)ncc1C(F)(F)F [Example 2(060), N-(2-{2-[4-(Perhydro-1,4-diazepin-1-sulphonyl)-phenylamino]-5-trifluoromethyl-pyrimidin-4-ylamino}-ethyl)-acetamide]	< 100
